Laboratory results reported in patent US20170119742A1, “MEDICAMENT FOR PREVENTING AND/OR TREATING STRESS DISEASES” (ONO PHARMACEUTICAL CO., LTD., priority 2014, published 2017).

Columns and labels:
[1] = test system: female diarrhea-type IBS patients; experiment: HAM-D (Hamilton Depression scale) in the clinical trial of Biological example 10; format: in vivo, human; details: 60 mg treatment
Procedure: (§1) In the clinical trial of Biological example 10, the therapeutic effect of the compound of the present invention 60 mg treatment on depression and anxiety-related diseases were evaluated using PSS (Perceived Stress Scale) (refer to Journal of Health and Social Behavior, 24, 386-396, 1983), HAM-A (Hamilton Anxiety Scale) (refer to The British journal of medical psychology, 32, 50-55, 1959) and HAM-D (Hamilton Depression scale) (refer to Journal of Neurology, Neurosurgery and Psychiatry, 23, 56-62, 1960) as rating scales.

[2] = Plasma concentration in monkeys (ex vivo occupancy study); details: male, rhesus monkey, once on day 4
Procedure: The vehicle (0.5 w/v % methylcellulose 400 cP solution) or the compound of the present invention (0.4 or 1 mg/kg) was orally administered twice daily for 3 days, once on day 4 to male rhesus monkeys (Shin Nippon Biomedical Laboratories, Ltd., at the time of use: 4 to 6 kg). After 2 hours of the final administration, in the same manner as Biological example 1, brain TSPO occupancy of the compound of the present invention relative to the specific binding of the vehicle control group was measured by measuring the specific binding amount of [3H] PBR28 on brain (anterior cingulate cortex, caudate nucleus, amygdala, hippocampus and occipital lobe) homogenates (n=3 in vehicle control group, n=5 in each the compound of the present invention treated group). As a result, the average TSPO occupancy of brain 5 sites was 37.9 and 56.6% in 0.4 and 1 mg/kg group of the compound of the present invention. The average plasma concentration of the compound of the present invention was 23.9 and 154 ng/mL in 0.4 and 1 mg/kg group.

[3] = test system: brain TSPO; experiment: Brain occupancy using PET in monkeys, [11C] PBR28; format: in vivo; details: rhesus monkey PET, [11C] PBR28, oral
Procedure: Male rhesus monkeys (Hamri Co., Ltd., at the time of use: 5 to 8 kg) were used. The vehicle (0.5 w/v % methylcellulose 400 cP solution) or the compound of the present invention (0.3 to 30 mg/kg) was once orally administered to 3 rhesus monkeys. After 2 hours of the administration, a PET measurement using [^11C] PBR28 was performed in the following manner.
Measurement equipment: PET camera; SHR-7700 (Hamamatsu Photonics K.K.) Image reconstruction: SHR Control II program (Hamamatsu Photonics K.K.) Change over time in brain radioactivity concentration and calculation of distribution volume: PMOD programs (PMOD Technologies Ltd.) Measurement methods: 120 minutes blank measurement and 30 minutes transmission measurement were performed using 68Ge/68Ga calibration source. Next, [^11C] […]
The compound of the present invention (0.3 to 10 mg/kg) was orally administered twice daily for 3 days, once on day 4 to 3 rhesus monkeys. […] Brain TSPO occupancy relative to the distribution volume of the vehicle control group was calculated by calculating the distribution volume of the interest area (cerebellum, hippocampus, striatum, thalamus, occipital lobe, temporal lobe, frontal lobe and parietal lobe) from the brain radioactivity concentration time change of [^11C] PBR28 and arterial blood plasma radioactivity which was corrected in a non-metabolic rate.

[4] = test system: female diarrhea-type IBS patients; experiment: HAM-A (Hamilton Anxiety Scale) in the clinical trial of Biological example 10; format: in vivo, human; details: 60 mg treatment
Procedure: as §1

[5] = target: T1, brain TSPO (Homo sapiens, UniProt P30536); experiment: Brain occupancy using PET in humans (2), different analytical method, Bmax fixed to 1; format: in vivo; details: [11C] PBR28, Emax model with Bmax fixed to 1, mean plasma concentration, SAS, read-out: Ki, blood concentration which can be achieved 50% Bmax (converted)
T1 construct: from tissue; host or cells: living human brain (PET, healthy adults)
T1 sequence (P30536 whole entry): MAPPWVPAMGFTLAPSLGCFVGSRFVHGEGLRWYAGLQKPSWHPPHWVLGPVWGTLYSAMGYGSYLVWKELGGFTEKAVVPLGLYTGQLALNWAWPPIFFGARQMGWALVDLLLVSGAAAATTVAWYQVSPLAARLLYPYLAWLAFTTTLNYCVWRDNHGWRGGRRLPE
Procedure: The data in Biological example 8 were analyzed in a different analytical method. Brain occupancy, relative to the binding potential (BP) before administration, was calculated by calculating the BP of each interest area from the brain radioactivity concentration time change of [^11C] PBR28, nonspecific binding amount and arterial blood plasma radioactivity which was corrected in a non-metabolic rate (n=3 to 4 in each group). Further, the average TSPO occupancy of all interest areas was determined from the Lassen plot that obtained by the horizontal axis of the distribution volume before administration (Vt baseline) and the vertical axis of the value obtained by subtracting the distribution volume after administration from the distribution volume before the administration (Vt baseline−Vt onmed) for each interest area. […] As parameters in this model, Bmax (a maximum number of binding) and Ki (ng/mL) (a blood concentration which can be achieved 50% Bmax) were used. Bmax was fixed to 1 in this analysis, and SAS Version 9.2 (SAS Institute) was used as an analysis software. Parameters and formula of Emax model were shown in the following.
TSPO Occupancy (%)=Bmax×Cave/(Ki+Cave)×100
Cave=Mean plasma concentration (ng/mL)

[6] = target: T1, brain TSPO; experiment: Prediction of brain TSPO occupancy in steady state, once daily in humans (Biological example 9); details: trough concentration
Description: A transition in the plasma concentration of the compound of the present invention, in a steady state when administered once daily, was predicted.

COc1cc(Cl)ccc1[C@H]1c2[nH]c3cccc(F)c3c2C2(CC2)CN1C(C)=O [the compound of the present invention, (1S)-2-acetyl-1-(4-chloro-2-methoxyphenyl)-5-fluoro-1,2,3,9-tetrahydrospiro[β-carboline-4,1′-cyclopropane]]
HAM-D score, 4th week ([1]; Patient D, baseline 18): 2
HAM-D score, Amount of change from baseline ([1]; Patient D, baseline 18, 4th week): −16
HAM-D score, 4th week ([1]; Patient E, baseline 13): 3
HAM-D score, Amount of change from baseline ([1]; Patient E, baseline 13, 4th week): −10
HAM-D score, 4th week ([1]; Patient F, baseline 20): 13
HAM-D score, Amount of change from baseline ([1]; Patient F, baseline 20, 4th week): −7
HAM-D score, 4th week ([1]; Patient G, baseline 13): 4
HAM-D score, Amount of change from baseline ([1]; Patient G, baseline 13, 4th week): −9
concentration at 2 h ([2]; 0.4 mg/kg oral twice daily 3 days): 23.9 ng/mL
concentration at 2 h ([2]; 1 mg/kg oral twice daily 3 days): 154 ng/mL
plasma concentration at which brain TSPO occupancy reaches about 50% [3]: about 70 ng/mL
HAM-A score, 4th week ([4]; Patient A, baseline 18): 4
HAM-A score, Amount of change from baseline ([4]; Patient A, baseline 18, 4th week): −14
HAM-A score, 4th week ([4]; Patient B, baseline 23): 1
HAM-A score, Amount of change from baseline ([4]; Patient B, baseline 23, 4th week): −22
HAM-A score, 4th week ([4]; Patient D, baseline 22): 4
HAM-A score, Amount of change from baseline ([4]; Patient D, baseline 22, 4th week): −18
HAM-A score, 4th week ([4]; Patient E, baseline 18): 5
HAM-A score, Amount of change from baseline ([4]; Patient E, baseline 18, 4th week): −13
Ki [5]: 34.1 nM
TSPO Occupancy (%) Predicted 5 percentile ([6]; dose 5 mg): 42.8%
TSPO Occupancy (%) Predicted 95 percentile ([6]; dose 5 mg): 70.3%
TSPO Occupancy (%) Predicted median ([6]; dose 5 mg): 57.4%
TSPO Occupancy (%) Predicted 5 percentile ([6]; dose 10 mg): 59.8%
TSPO Occupancy (%) Predicted 95 percentile ([6]; dose 10 mg): 82.3%
TSPO Occupancy (%) Predicted median ([6]; dose 10 mg): 73.1%
TSPO Occupancy (%) Predicted 5 percentile ([6]; dose 20 mg): 74.6%
TSPO Occupancy (%) Predicted 95 percentile ([6]; dose 20 mg): 90.5%
TSPO Occupancy (%) Predicted median ([6]; dose 20 mg): 84.4%
TSPO Occupancy (%) Predicted 5 percentile ([6]; dose 30 mg): 81.6%
TSPO Occupancy (%) Predicted 95 percentile ([6]; dose 30 mg): 93.4%
TSPO Occupancy (%) Predicted median ([6]; dose 30 mg): 89.0%
TSPO Occupancy (%) Predicted 5 percentile ([6]; dose 60 mg): 90.0%
TSPO Occupancy (%) Predicted 95 percentile ([6]; dose 60 mg): 96.7%
TSPO Occupancy (%) Predicted median ([6]; dose 60 mg): 94.2%
TSPO Occupancy (%) Predicted 5 percentile ([6]; dose 100 mg): 95.3%
TSPO Occupancy (%) Predicted 95 percentile ([6]; dose 100 mg): 98.4%
TSPO Occupancy (%) Predicted median ([6]; dose 100 mg): 97.4%
